Reference: PubChem BioAssay (NCI)
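Abbreviation: GI50, concentration required for 50% inhibition of growth. TGI denotes the concentration required for complete inhibition of growth.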

Key:
Assay in all cases: NCI anticancer screen, dose series, 384-well format
A549 NSCLC = test system: A549 NSCLC
DU-145 prostate = test system: DU-145 prostate
HCT-15 colon = test system: HCT-15 colon
HL-60(TB) leukemia = test system: HL-60(TB) leukemia
HOP-92 NSCLC = test system: HOP-92 NSCLC
MDA-MB-231 breast = test system: MDA-MB-231 breast
NCI-H460 NSCLC = test system: NCI-H460 NSCLC
SF-268 CNS = test system: SF-268 CNS
SF-295 CNS = test system: SF-295 CNS
SK-MEL-5 melanoma = test system: SK-MEL-5 melanoma
U251 glioblastoma = test system: U251 glioblastoma
UACC-257 melanoma = test system: UACC-257 melanoma
UACC-62 melanoma = test system: UACC-62 melanoma

`CC(C)(O)c1cc(Nc2cc(Oc3cn(C4CC4)nc3C3CCOCC3)ccn2)ccn1` gave a GI50 (A549 NSCLC) of 89.6 µM, a TGI (A549 NSCLC) of over 100 µM and a GI50 (DU-145 prostate) of over 100 µM. The TGI (DU-145 prostate) was over 100 µM, the GI50 (HCT-15 colon) was over 100 µM and the TGI (HCT-15 colon) was over 100 µM. The GI50 (HL-60(TB) leukemia) was 15.5 µM, the TGI (HL-60(TB) leukemia) was 29.1 µM and the GI50 (HOP-92 NSCLC) was 50.7 µM. It also gave a TGI (HOP-92 NSCLC) of over 100 µM, a GI50 (MDA-MB-231 breast) of over 89 µM and a TGI (MDA-MB-231 breast) of over 100 µM. The GI50 (NCI-H460 NSCLC) was 38.8 µM, the TGI (NCI-H460 NSCLC) was over 100 µM and the GI50 (SF-268 CNS) was over 100 µM. The TGI (SF-268 CNS) was over 100 µM, the GI50 (SF-295 CNS) was over 90 µM and the TGI (SF-295 CNS) was over 100 µM. It also gave a GI50 (SK-MEL-5 melanoma) of 16.4 µM, a TGI (SK-MEL-5 melanoma) of over 100 µM and a GI50 (U251 glioblastoma) of over 100 µM. The TGI (U251 glioblastoma) was over 100 µM, the GI50 (UACC-257 melanoma) was 45 µM and the TGI (UACC-257 melanoma) was over 100 µM. For the same compound, the GI50 (UACC-62 melanoma) was 52.1 µM and the TGI (UACC-62 melanoma) was over 100 µM.
